Assay type in all cases: in vivo
Assay [1] concerns Musca domestica. Description: Musca domestica test. The following applies: 100 ppm; treated sponge; after 2 d; adult flies; comparative example. As for the experimental part: (§1) Solvent: Dimethyl sulphoxide
To produce a suitable preparation of active compound, 1 part by weight of active compound is mixed with the stated amount of water, and the concentrate is diluted with water to the desired concentration.
Containers containing a sponge treated with the active compound preparation of the desired concentration are populated with adult Musca domestica.
After the desired period of time, the kill in % is determined. 100% means that all flies have been killed; 0% means that none of the flies have been killed.

The subject of assay [2] is Ctenocephalides felis. The assay is described as follows: Ctenocephalides felis; oral. The conditions noted are these: 100 ppm in citrated cattle blood, after 2 d, adult fleas, comparative example. As for the experimental part: Ctenocephalides Felis; Oral
as §1
To produce a suitable preparation of active compound, 1 part by weight of active compound is mixed with the stated amount of […]. Part of the concentrate is diluted with citrated cattle blood, and the desired concentration is prepared.
20 unfed adult fleas (Ctenocephalides felis) are placed into a chamber whose top and bottom ends are closed with gauze. A metal cylinder whose bottom end is closed with parafilm is placed onto the chamber. The cylinder contains the blood/active compound preparation, which can be taken up by the fleas through the parafilm membrane. The blood is warmed to 37° C., but the flea chamber is at room temperature.
After the desired period of time, the kill in % is determined. 100% means that all fleas have been killed; 0% means that none of the fleas have been killed.

Assay [3] deals with Phaedon cochleariae. Description: Phaedon test (spray treatment). The conditions noted are these: 20 g/ha; after 7 d; comparative example. Here is the method:
Phaedon Test (Spray Treatment)
To produce a suitable preparation of active compound, 1 part by weight of active compound is mixed with the stated amounts of solvents and emulsifier, and the concentrate is diluted with emulsifier-containing water to the desired concentration.
After the desired period of time, the activity in % is determined. 100% means that all beetle larvae have been killed, 0% means that none of the beetle larvae have been killed.
In this test, for example, the following compounds of the Preparation Examples show an activity of ≧80% at an application rate of 500 g/ha: […]

Structures are written as SMILES.

`CCN(Cc1ccc(Cl)nc1)C(C)=NC#N`: the “Musca domestica % 2 d (kill)” value in assay [1] was 0%. Besides, the “Ctenocephalides felis % 2 d (kill)” value in assay [2] is 30%. The “Phaedon test spray treatment % 7 d” value in assay [3] is recorded as 0%.

As for `CC(=NC#N)N(Cc1ccc(Cl)nc1)CC(F)F` [I-1, N-[(6-chloropyridin-3-yl)methyl]-N′-cyano-N-(2,2-difluoroethyl)ethanimidamide], the “Musca domestica % 2 d (kill)” value in assay [1] was determined as 100%. Also, the “Ctenocephalides felis % 2 d (kill)” value in assay [2] was 70%. Also, the “Phaedon test spray treatment % 7 d” value in assay [3] is recorded as 100%.

For the origin of these results see patent US8138350B2, “N′-cyano-N-halogenalkylimidamide derivatives” (Bayer Cropscience AG, priority 2006, dated 2012).
